Tests used:
[1] = tested on: Human Liver cell line (HepG2); experiment: Thapsigargin induced protein aggregation in human liver cells (thioflavin staining, flow cytometry); type: cell-based; settings: 10 μg/ml, 1 μM Thapsigargin, FIGS. 7a and 7b
Protocol: (§1) HepG2—human liver cell line, primary mouse hepatocytes. Min6—Mouse pancreatic beta cell line, 3T3 L1—mouse preadipocytes wee used for the experiments. Cells were maintained in DMEM containing 25 mM glucose with 10% heat-inactivated fetal calf serum with antibiotics at 37° C. and 5% CO2. When the cells were 70-80% confluent, they were trypsinized, washed and seeded in 96 well plates at a density of 5×10^3 cells per well. Stress was induced by Thapsigargin(1 uM) for 4 hours, glucose (50 and 100 mM) and alcohol (1000 mM) or paracetamol (4 mM) for 72 hours. Garcinol was added along with stressor as prophylactic treatment. As a therapeutic treatment, cells were exposed to stress agent 24 hours following which Garcinol was added to the cells. Protection was assessed by SRB assay after 72 hours of treatment
IRE1α phosophorylation levels can be assessed by measuring spliced. XBP-1 product by RT PCR. PERK activation is measured by its phosphorylation levels or by measuring the ATF4 mRNA levels. Activation of ATF4 leads to increased transcription of a network of genes, including those encoding ER chaperones, such as BiP/GRP78.
Effect of Garcinol on Thapsigargin induced ER stress in human liver cells was also evaluated. […] Treated and untreated cells were analysed by Flow cytometry and RT PCR.

HepG2 Cells = experiment: Alcohol induced toxicity in HepG2 cells (SRB assay); type: cell-based, human; settings: 10 μg/ml; 1000 mM Ethanol for 72 hours; FIG. 6
Protocol: as §1
For evaluating alcohol induced toxicity, HepG2 Cells were exposed to 1000 mM of Ethanol for 72 hours in the presence of different concentrations of Garcinol and protection was assessed by SRB assay. Garcinol conferred hepatoprotection against alcohol induced toxicity by 47% at concentration of 10 μg/ml (FIG. 6).

[2] = tested on: primary mouse hepatocytes; experiment: Thapsigargin induced protein aggregation in primary mouse hepatocytes (thioflavin staining); type: cell-based; settings: 10 μg/ml; 1 μM Thapsigargin; FIG. 7c

- reduction in protein aggregation in primary mouse hepatocytes [2]: 70.4%
SMILES: C=C(C)[C@@H](CC=C(C)C)C[C@@]12C[C@@H](CC=C(C)C)C(C)(C)[C@@](CC=C(C)C)(C(=O)C(C(=O)c3ccc(O)c(O)c3)=C1O)C2=O [Garcinol]
- reduction in protein aggregation in human liver cells [1]: 44.4%
- hepatoprotection against alcohol induced toxicity (HepG2 Cells): 47%
